Test results from US20130252950A1, “TARGETING MTOR SUBSTRATES IN TREATING PROLIFERATIVE DISEASES” (President and Fellows of Harvard College, priority 2010, published 2013).
Values belong to the molecule of their own block, whether it stands above or below them.

Experiments:
[1] = test system: Grb10 S501/S503 phosphorylation in TSC2−/− cells; assay: Immunoblot of Grb10 S501/S503 phosphorylation with phospho-specific antibody; format: cell-based, mouse; details: serum-starved TSC2−/− cells, two hours; rapamycin 20 nM, staurosporine 100 nM, LY294002 20 μM, BEZ235 500 nM, torin 100 nM, pp 242 1 μM, Ku-0063794 at indicated concentrations
Procedure: (§1) FIG. 2. Phosphorylation of Grb10 at S501/S503 is sensitive to rapamycin inhibition. (A) Identification of a doubly-phosphorylated rapamycin-sensitive Grb10 peptide (MNILSS*QS*[…] , SEQ ID NO: 2, * indicates phosphorylation sites) corresponding to S501/S503. (B) Evolutionary conservation of Grb10 S501/S503 among vertebrate species. […] TSC2−/− cells were starved for serum and treated with 20 nM rapamycin for the indicated times. Sequences, from top to bottom: SEQ ID NO: 1723 to SEQ ID NO: 1727, respectively. (D) Phosphorylation of Grb10 at S501/501 is sensitive to amino acids withdrawal. TSC2−/− cells were starved in DMEM overnight and then transferred to D-PBS for the indicated times. (E) Phosphorylation of Grb10 at S501/S503 is not affected by the pan-kinase inhibitor, staurosporine. TSC2−/− cells were starved for serum and treated with either 100 nM staurosporine or Ku-0063794 at the indicated concentrations for two hours. (F) Grb10 phosphorylation is increased upon growth factor stimulation. Wild type (WT) mouse embryonic fibroblasts (MEFs) were starved for serum overnight and then were stimulated with insulin (100 nM) or serum (10%) for 15 min. The cells were preincubated with the indicated compounds for two hours. […] Rapamycin (rapa) was used at 20 nM. (G) Grb10 phosphorylation at S501/S503 is sensitive to various mTOR kinase inhibitors. TSC2−/− cells were serum-starved and treated with the indicated compounds for two hours. The concentrations of the compounds were rapamycin 20 nM, LY (LY294002) 20 μM, BEZ235 (NVP-BEZ235) 500 nM, torin 100 nM, and pp 242 1 μM.
We developed a phosphospecific antibody (FIGS. 9A and 9B) to further characterize these two Grb10 phosphorylation sites. […] The dephosphorylation kinetics correlated well with that of S6K.
We further investigated the effects of growth factor stimulation and rapamycin-mediated inhibition on Grb10 phosphorylation in other cell types. Wild-type MEFs were serum-starved and then stimulated with either insulin or 10% serum, both of which led to a robust increase in Grb10 phosphorylation (FIG. 2F). […] It was previously reported that Grb10 S503 (S476 in human Grb10 isoform 3) was phosphorylated by ERK1/2 in vitro (13).

[2] = test system: Grb10 protein in TSC2−/− cells; assay: Immunoblot of Grb10 protein level after long-term treatment; format: cell-based, mouse; details: TSC2−/− cells, endogenous Grb10
Text: FIG. 3. mTOR-mediated Grb10 phosphorylation is important for Grb10 stability. (A) Grb10 interacts with raptor, but not rictor. HA-tagged Grb10 was co-transfected with Myc-raptor or Myc-rictor in HEK293T cells. Cells were lysed in lysis buffer A, and the lysates were subjected to immunoprecipitation using anti-HA antibody conjugated beads. Raptor and rictor were probed with an antibody against the Myc-tag. (B) Grb10 is phosphorylated by mTOR in vitro. […] Phosphorylation of Grb10 at S501/S503 was detected by using the phospho-specific antibody against these two sites. (C) Long-term rapamycin treatment leads to Grb10 degradation in TSC2−/− cells. Note that Grb10 protein expression levels inversely correlated with Akt activity. Grb10 is highly overexpressed in TSC2−/− cells. mRNA level was determined using quantitative RT-PCR based on three biological replicate experiments. (D) Knockdown of raptor in TSC2−/− cells decreased Grb10 protein level. Cells were starved overnight and the lysates were probed with the antibodies indicated. (E) Grb10 is highly overexpressed in TSC2−/− cells. (F) S501A/S503A mutant is unstable compared with the wild-type or the S501D/S503D mutant. The same amount of DNA was transfected into HEK293T cells. […] Endogenous Grb10 was detected using an antibody that preferentially recognizes mouse Grb10 whereas the Grb10 DD mutant (of human origin) was detected using an anti-HA antibody.
(§2) FIG. 9. Phosphorylation of Grb10 at S501/S503 regulates its stability. […] Preincubation of the antibody with the […] completely eliminated the immunoreactivity. (B) Further validation of the phospho-specific antibody raised against the Grb10 S501/S503 sites. Grb10 WT, S501A/S503A (AA) and S501D/S503D (DD) were transfected into HEK239T cells and were probed with the antibody. Note that this antibody detected wild type (WT) Grb10, but neither of the mutant proteins. (C) Treatment of TSC2−/− cells with various mTOR kinase inhibitors led to Grb10 degradation. […] (E) Grb10 is highly overexpressed in TSC1−/− cells compared with their wild-type counterparts. (F) rapamycin treatment of TSC2−/− cells stably expressing wild type (WT) Grb10 led to lower levels of both endogenous and exogenous Grb10.
In addition, long-term treatment with mTOR kinase inhibitors, including LY-294002, NVP-BEZ235, torin and pp 242 all led to reduced Grb10 protein expression (FIG. 9C). Similar results were obtained in TSC1−/− MEFs (FIG. 9D). In contrast, we found Grb10 was highly overexpressed in TSC2−/− and TSC1−/− MEFs compared with their wild-type counterparts (FIGS. 3E and 9E), correlating with elevated mTORC1 activity in these cells. […]

[3] = test system: phospho-mTOR S2481 in TSC2−/− cells; assay: Immunoblot of mTOR S2481 phosphorylation; format: cell-based, mouse; details: starved TSC2−/− cells; 20 nM rapamycin acute treatment; pp 242 two hours
[4] = test system: ERK in wild type (WT) MEFs; assay: Immunoblot of ERK activity after growth factor stimulation; format: cell-based, mouse; details: serum-starved WT MEFs, AZD6244 5 μM two hours, insulin or serum 15 min
Procedure: as §1, with “TSC2−/− cells were serum-starved and treated with the indicated compounds for two hours. The concentrations of the compounds were rapamycin 20 nM, LY (LY294002) 20 μM, BEZ235 (NVP-BEZ235) 500 nM, torin 100 nM, and pp 242 1 μM.” left out

[5] = test system: Grb10 S501/S503 phosphorylation in wild type (WT) MEFs; assay: Immunoblot of Grb10 phosphorylation after insulin or serum stimulation; format: cell-based, mouse; details: serum-starved WT MEFs, preincubated two hours (rapamycin 20 nM, AZD6244 5 μM), insulin 100 nM or serum 10% 15 min
Procedure: as §1, with “TSC2−/− cells were serum-starved and treated with the indicated compounds for two hours. The concentrations of the compounds were rapamycin 20 nM, LY (LY294002) 20 μM, BEZ235 (NVP-BEZ235) 500 nM, torin 100 nM, and pp 242 1 μM.” left out

wild-type MEFs = assay: Ku-0063794 screen: SILAC quantitative phosphoproteomics in rapamycin-inhibited, insulin-stimulated cells
Akt phosphorylation = assay: Immunoblot of insulin-induced Akt phosphorylation; details: FIG. 5C
Procedure: For the Ku-screen, wild-type MEFs were grown in light and heavy SILAC media and starved overnight for serum. […] Both the light and heavy cell were subsequently stimulated with insulin for 15 minutes and samples were pooled and analyzed by quantitative mass spectrometry.
Samples were boiled for 5 min and subject to electrophoresis using the standard SDS-PAGE method. Proteins were then transferred to a nitrocellulose membrane (Whatman). The membranes were blocked with a TBST buffer (25 mM Tris-HCl, pH 7.5, 150 mM NaCl, 0.05% Tween 20) containing 3% nonfat dried milk, and probed overnight with primary antibodies at 4° C. and for 1 h at RT with peroxidase-conjugated secondary antibodies. Blots were developed using enhanced chemiluminescence, exposed on autoradiograph film and developed using standard methods.

[6] = test system: Grb10 protein in TSC1−/− cells; assay: Immunoblot of Grb10 protein level in TSC1−/− cells; format: cell-based, mouse
Procedure: as §2
In addition, long-term treatment with mTOR kinase inhibitors, including LY-294002, NVP-BEZ235, torin and pp 242 all led to reduced Grb10 protein expression (FIG. 9C). Similar results were obtained in TSC1−/− MEFs (FIG. 9D). In contrast, we found Grb10 was highly overexpressed in TSC2−/− and TSC1−/− MEFs compared with their wild-type counterparts (FIGS. 3E and 9E), correlating with elevated mTORC1 activity in these cells.

[7] = test system: rpS6 phosphorylation in TSC2−/− cells; assay: Immunoblot of rpS6 phosphorylation (S6K activity); format: cell-based, mouse; details: serum-starved TSC2−/− cells, 100 nM staurosporine, two hours
Procedure: as §1, with “TSC2−/− cells were serum-starved and treated with the indicated compounds for two hours. The concentrations of the compounds were rapamycin 20 nM, LY (LY294002) 20 μM, BEZ235 (NVP-BEZ235) 500 nM, torin 100 nM, and pp 242 1 μM.” left out

[8] = target: T1, Myc-tagged rictor (pRK5-Myc-Rictor) (UniProt Q6R327 1-1708); assay: co-immunoprecipitation with anti-HA beads from co-transfected HEK293T cells, anti-Myc blot
T1 construct: Co-overexpressed with HA-Grb10 in HEK293T cells; not shown: Myc tag
T1 sequence (Q6R327 whole entry): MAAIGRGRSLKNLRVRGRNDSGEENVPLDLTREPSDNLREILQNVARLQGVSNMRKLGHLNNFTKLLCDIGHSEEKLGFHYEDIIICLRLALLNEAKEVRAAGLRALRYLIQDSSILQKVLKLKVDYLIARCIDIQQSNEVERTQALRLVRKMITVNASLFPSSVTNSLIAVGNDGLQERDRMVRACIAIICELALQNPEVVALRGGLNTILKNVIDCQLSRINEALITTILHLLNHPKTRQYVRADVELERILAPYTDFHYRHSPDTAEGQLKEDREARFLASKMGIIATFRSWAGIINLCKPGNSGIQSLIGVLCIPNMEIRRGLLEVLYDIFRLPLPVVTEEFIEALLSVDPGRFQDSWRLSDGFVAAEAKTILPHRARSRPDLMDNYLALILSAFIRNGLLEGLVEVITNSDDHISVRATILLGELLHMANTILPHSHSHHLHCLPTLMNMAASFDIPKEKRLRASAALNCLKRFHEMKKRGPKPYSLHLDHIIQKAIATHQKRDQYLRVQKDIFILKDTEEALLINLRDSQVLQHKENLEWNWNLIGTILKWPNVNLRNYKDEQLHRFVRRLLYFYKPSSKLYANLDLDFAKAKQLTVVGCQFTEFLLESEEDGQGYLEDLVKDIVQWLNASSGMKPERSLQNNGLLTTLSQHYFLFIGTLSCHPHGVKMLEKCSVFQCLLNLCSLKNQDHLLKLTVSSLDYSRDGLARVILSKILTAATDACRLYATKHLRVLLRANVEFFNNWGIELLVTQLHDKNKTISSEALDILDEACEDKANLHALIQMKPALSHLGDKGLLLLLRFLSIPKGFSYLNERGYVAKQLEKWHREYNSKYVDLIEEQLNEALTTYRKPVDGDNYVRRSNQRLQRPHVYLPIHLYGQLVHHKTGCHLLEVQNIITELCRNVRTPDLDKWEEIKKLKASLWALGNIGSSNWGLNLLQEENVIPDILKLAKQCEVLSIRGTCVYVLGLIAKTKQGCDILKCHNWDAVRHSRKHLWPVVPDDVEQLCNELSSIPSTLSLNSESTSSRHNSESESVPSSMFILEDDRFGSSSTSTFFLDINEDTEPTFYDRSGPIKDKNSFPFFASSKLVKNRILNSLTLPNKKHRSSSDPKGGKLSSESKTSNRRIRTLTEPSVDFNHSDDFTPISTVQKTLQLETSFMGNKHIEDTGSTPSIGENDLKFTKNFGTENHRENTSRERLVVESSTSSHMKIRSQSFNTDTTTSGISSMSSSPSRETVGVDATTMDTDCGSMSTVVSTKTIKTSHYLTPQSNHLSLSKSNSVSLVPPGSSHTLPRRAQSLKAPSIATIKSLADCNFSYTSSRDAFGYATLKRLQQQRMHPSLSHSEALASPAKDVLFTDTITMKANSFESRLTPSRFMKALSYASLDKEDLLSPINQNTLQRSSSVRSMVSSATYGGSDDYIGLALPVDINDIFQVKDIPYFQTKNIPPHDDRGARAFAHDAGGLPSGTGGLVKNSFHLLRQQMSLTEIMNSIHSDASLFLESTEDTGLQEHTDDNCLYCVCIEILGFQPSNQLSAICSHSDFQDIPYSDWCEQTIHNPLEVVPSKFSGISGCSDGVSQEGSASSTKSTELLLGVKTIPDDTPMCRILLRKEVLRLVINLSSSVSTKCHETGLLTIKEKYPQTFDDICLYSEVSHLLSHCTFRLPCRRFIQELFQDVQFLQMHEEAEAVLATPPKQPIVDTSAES

[9] = downregulated phosphorylation, wt MEFs, 20 nM rapamycin + 2 μM Ku-0063794 2 h vs rapamycin alone, insulin 15 min

Molecule: CC(C)n1nc(-c2cc3cc(O)ccc3[nH]2)c2c(N)ncnc21 [pp 242]
Grb10 S501/S503 phosphorylation (immunoblot) [1]: completely abolished
Grb10 protein levels after long-term treatment [2]: reduced
mTOR S2481 phosphorylation (immunoblot) [3]: completely ablated

Molecule: Cn1cnc2c(F)c(Nc3ccc(Br)cc3Cl)c(C(=O)NOCCO)cc21 [AZD6244]
activities of ERK [4]: completely abolished
insulin- or serum-induced Grb10 S501/S503 phosphorylation [5]: no effect

Median (treated/ctrl) fold-change of phosphopeptide TTS*FAESCKPVQQPSAFGSMK, Gsk3β S9 (wild-type MEFs; [9]): ~2.2 fold
Molecule: COc1ccc(-c2ccc3c(N4CCOCC4)nc(N4C[C@@H](C)O[C@@H](C)C4)nc3n2)cc1CO [Ku-0063794]
Grb10 S501/S503 phosphorylation (immunoblot) [1]: dose-dependent dephosphorylation
4EBP T36/T45 phosphorylation (FIG. 6A) (wild-type MEFs; Ku-0063794 screen): completely abolished
intensity of T70 singly phosphorylated 4EBP1 peptide (wild-type MEFs; Ku-0063794 screen): did not change
rpS6 S235/236 phosphorylation (Class I site) (wild-type MEFs; Ku-0063794 screen, rapamycin-inhibited background): not further decreased
Median (treated/ctrl) fold-change of phosphopeptide DRSSS*APNVHINTIEPVNIDDLIR, Braf S312 (wild-type MEFs; [9]): 2.1 fold
Median (treated/ctrl) fold-change of phosphopeptide Eif4ebp1 T36, T45 (wild-type MEFs; [9]): 7.2 fold
Median (treated/ctrl) fold-change of phosphopeptide Eif4ebp2 S65 (wild-type MEFs; [9]): 6.8 fold
Median (treated/ctrl) fold-change of phosphopeptide LGS*FGSITR, Flnc S2234 (wild-type MEFs; [9]): 2.4 fold
Median (treated/ctrl) fold-change of phosphopeptide LNT*SDFQK, Akt1s1 T247 (wild-type MEFs; [9]): 31.3 fold
Median (treated/ctrl) fold-change of phosphopeptide TAS*GSS*VTSLEGTR, Ndrg1 S330, S333 (wild-type MEFs; [9]): 4.1 fold
Median (treated/ctrl) fold-change of phosphopeptide TGS*ESSQTGASATSGR, Eif4b S422 (wild-type MEFs; [9]): 2.2 fold
insulin-induced Akt phosphorylation (Akt phosphorylation): inhibits

Molecule: Cn1c(=O)n(-c2ccc(C(C)(C)C#N)cc2)c2c3cc(-c4cnc5ccccc5c4)ccc3ncc21 [NVP-BEZ235]
Grb10 S501/S503 phosphorylation (immunoblot) [1]: completely abolished
Grb10 protein levels after long-term treatment [2]: reduced
level of Grb10 in TSC1−/− cells [6]: decreased level

Molecule: CCC(=O)N1CCN(c2ccc(-n3c(=O)ccc4cnc5ccc(-c6cnc7ccccc7c6)cc5c43)cc2C(F)(F)F)CC1 [torin]
Grb10 S501/S503 phosphorylation (immunoblot) [1]: completely abolished
Grb10 protein levels after long-term treatment [2]: reduced

Molecule: CN[C@@H]1C[C@H]2O[C@@](C)([C@@H]1OC)n1c3ccccc3c3c4c(c5c6ccccc6n2c5c31)C(=O)NC4 [staurosporine]
rpS6 phosphorylation (S6K activity) [7]: complete loss
Grb10 S501/S503 phosphorylation (immunoblot) [1]: No change

binding result [8]: no binding
B1: HA-tagged Grb10 (human growth factor receptor-bound protein 10, wild type) (other, UniProt Q13322-3 1-536, looked up)
chain: MNASLESLYSACSMQSDTVPLLQNGQHARSQPRASGPPRSIQPQVSPRQRVQRSQPVHILAVRRLQEEDQQFRTSSLPAIPNPFPELCGPGSPPVLTPGSLPPSQAAAKQDVKVFSEDGTSKVVEILADMTARDLCQLLVYKSHCVDDNSWTLVEHHPHLGLERCLEDHELVVQVESTMASESKFLFRKNYAKYEFFKNPMNFFPEQMVTWCQQSNGSQTQLLQNFLNSSSCPEIQGFLHVKELGKKSWKKLYVCLRRSGLYCSTKGTSKEPRHLQLLADLEDSNIFSLIAGRKQYNAPTDHGLCIKPNKVRNETKELRLLCAEDEQTRTCWMTAFRLLKYGMLLYQNYRIPQQRKALLSPFSTPVRSVSENSLVAMDFSGQTGRVIENPAEAQSAALEEGHAWRKRSTRMNILGSQSPLHPSTLSTVIHRTQHWFHGRISREESHRIIKQQGLVDGLFLLRDSQSNPKAFVLTLCHHQKIKNFQILPCEDDGQTFFSLDDGNTKFSDLIQLVDFYQLNKGVLPCKLKHHCIRVAL
notes: Expressed by transfection in HEK293T cells; The phospho-specific antibody recognises it in the form phosphorylated at S501/S503 (mouse isoform 1 numbering) in cells; also called WT-Grb10; Grb10 WT; not shown: HA tag from vector pKH3
